We go through ten compounds from paper PMC7717710, “Synthesis, computational studies and assessment of in vitro inhibitory activity of umbelliferon-based compounds against tumour-associated carbonic anhydrase isoforms IX and XII” (Journal of Enzyme Inhibition and Medicinal Chemistry, 2020).

Data set [1] addresses T1, hCA I (Homo sapiens, UniProt P00915).
T1 construct: made in house
In words: stopped-flow CO2 hydrase assay, hCA I. It counts as biochemical. The note with it: recombinant hCA I; stopped-flow CO2 hydration; 15 min preincubation; errors ± 10%, 3 assays; read-out: Inhibition data (Ki) hCA I. On the procedure:
(§1) An applied photophysics stopped-flow instrument has been used for assaying the CA catalysed CO2 hydration activity. Phenol red (at a concentration of 0.2 mM) has been used as an indicator, working at the absorbance maximum of 557 nm, with 10–20 mM Hepes (pH 7.5) or Tris (pH 8.3) as buffers, and 20 mM Na2SO4 or 20 mM NaClO4 (for maintaining constant the ionic strength), following the initial rates of the CA-catalysed CO2 hydration reaction for a period of 10–100 s. The CO2 concentrations ranged from 1.7 to 17 mM for the determination of the kinetic parameters and inhibition constants. For each inhibitor, at least six traces of the initial 5-10% of the reaction have been used for determining the initial velocity. The uncatalyzed rates were determined in the same manner and subtracted from the total observed rates. Stock solutions of inhibitor (10 mM) were prepared in distilled-deionized water and dilutions up to 0.01 nM were done thereafter with distilled-deionized water. Inhibitor and enzyme solutions were preincubated together for 15 min at room temperature prior to assay to allow for the formation of the E–I complex. The inhibition constants were obtained by non-linear least-squares methods using PRISM 3, as reported earlier and represent the mean from at least three different determinations. CA isoforms were recombinant ones obtained as reported earlier by this group.
(§2) This small series of coumarin derivatives 7–11, 15–17 were subjected to the stopped-flow CO2 hydrase assays to evaluate the binding affinity against the tumour-associated hCA IX and XII over ubiquitous isoforms hCA I and II.

For data set [2], the target named is T2, hCA II (Homo sapiens, UniProt P00918).
T2 construct: made in house
In words: stopped-flow CO2 hydrase assay, hCA II. It counts as biochemical. The note with it: recombinant hCA II; stopped-flow CO2 hydration; 15 min preincubation; errors ± 10%, 3 assays; read-out: Inhibition data (Ki) hCA II. On the procedure: as §1, §2

Data set [3] deals with T3, hCA IX (Homo sapiens, UniProt Q16790).
T3 construct: made in house
In words: stopped-flow CO2 hydrase assay, hCA IX. The class given is biochemical. The following applies: recombinant hCA IX; stopped-flow CO2 hydration; 15 min preincubation; errors ± 10%, 3 assays; read-out: Inhibition data (Ki) hCA IX. On the procedure: as §1, §2

Data set [4] concerns the target T4, hCA XII (Homo sapiens, UniProt O43570).
T4 construct: made in house
In words: stopped-flow CO2 hydrase assay, hCA XII. The following applies: for Ki: recombinant hCA XII, stopped-flow CO2 hydration, 15 min preincubation, errors ± 10%, 3 assays, read-out: Inhibition data (Ki) hCA XII. It counts as biochemical. As to the method: as §1, §2

The target in data set [5] is T1, hCA I. More on the design: method as in PMID 29197732. The following applies: reference compounds; read-out: Inhibition data (Ki) hCA I; cited from earlier work.
Data set [6] has as its target T2, hCA II. More on the design: method as in PMID 29197732. The note with it: reference compounds; read-out: Inhibition data (Ki) hCA II; cited from earlier work.

The term Ki denotes a measure of affinity in units of concentration, obtained from inhibition or displacement. One may read the melting point as the temperature, or range, at which the solid turns liquid.

Like-named read-outs stand apart in the source and are kept apart here. A value given as a limit tells only on which side of the number the result lay.

T4 sequence (O43570 25-354): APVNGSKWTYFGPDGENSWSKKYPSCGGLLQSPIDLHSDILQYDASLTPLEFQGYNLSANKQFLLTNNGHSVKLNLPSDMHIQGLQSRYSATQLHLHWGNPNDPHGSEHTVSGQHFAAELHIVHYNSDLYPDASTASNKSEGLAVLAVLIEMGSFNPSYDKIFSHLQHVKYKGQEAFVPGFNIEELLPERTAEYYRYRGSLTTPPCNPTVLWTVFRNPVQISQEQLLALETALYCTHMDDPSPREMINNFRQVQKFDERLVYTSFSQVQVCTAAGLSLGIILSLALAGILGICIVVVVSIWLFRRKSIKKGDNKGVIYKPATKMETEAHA
T1 sequence (P00915 whole entry): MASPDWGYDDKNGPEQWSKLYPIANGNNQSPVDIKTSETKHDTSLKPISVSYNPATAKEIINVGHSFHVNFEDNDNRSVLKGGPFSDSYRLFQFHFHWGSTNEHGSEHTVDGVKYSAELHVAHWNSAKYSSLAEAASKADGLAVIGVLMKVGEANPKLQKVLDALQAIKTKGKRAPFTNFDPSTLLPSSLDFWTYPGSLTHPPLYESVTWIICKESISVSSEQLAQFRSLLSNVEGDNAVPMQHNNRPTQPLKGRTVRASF

With `CC(=O)Oc1ccc2c(-c3ccccc3)cc(=O)oc2c1` [compound 7, 2-oxo-4-phenyl-2H-chromen-7-yl acetate], the melting point was 129 to 131 °C. Besides, the Ki in data set [1] was over 10000 nM. Also, the Ki in data set [2] is over 10000 nM. Moreover, the Ki in data set [3] is 56.2 nM. Besides, the Ki in data set [4] worked out at 734 nM.

On to `O=c1cc(-c2ccccc2)c2ccc(O)c(Cl)c2o1` [compound 15, 8-Chloro-7-hydroxy-4-phenyl-2H-chromen-2-one], for which the melting point was 214 to 215 °C. In addition, in data set [1], the Ki is over 10000 nM. Also, the Ki in data set [2] was over 10000 nM. For the same compound, the Ki in data set [3] amounted to 261 nM. Further, in data set [4], the Ki came to 32 nM.

With `O=C(Oc1ccc2c(-c3ccccc3)cc(=O)oc2c1)c1ccccc1` [compound 9, 2-Oxo-4-phenyl-2H-chromen-7-yl benzoate], the inhibition constant (Ki) in data set [1] is over 10000 nM; in data set [2], over 10000 nM; in data set [3] it was 21.8 nM; in data set [4] it was 385 nM.

On to `O=c1cc(-c2ccc([N+](=O)[O-])cc2)c2ccc(O)c(Cl)c2o1` [compound 16, 8-Chloro-7-hydroxy-4-(4-nitrophenyl)-2H-chromen-2-one], for which the melting point was in the range of 303 to 305 °C.

For the compound `CCC(=O)Oc1ccc2c(-c3ccccc3)cc(=O)oc2c1` [compound 8, 2-Oxo-4-phenyl-2H-chromen-7-yl propionate], the melting point was in the range of 172 to 174 °C. Besides, the Ki in data set [1] is over 10000 nM. The Ki in data set [2] is over 10000 nM. Further, in data set [3], the inhibition constant (Ki) amounted to 97.8 nM. Further, the Ki in data set [4] is 523 nM.

With `CCC(=O)c1c(O)ccc2c(-c3ccccc3)cc(=O)oc12` [compound 11, 7-Hydroxy-4-phenyl-8-propanoyl-2H-chromen-2-one], the melting point was in the range of 172 to 174 °C. The Ki in data set [1] is over 10000 nM. In addition, the Ki in data set [2] is over 10000 nM. In data set [3], the Ki turned out to be 3040 nM. Besides, the “fold less active/efficient towards hCA XII than parent compound 3” value in data set [4] (ratio of Ki values versus compound 3) is 10 fold. Moreover, the Ki in data set [4] was found to be 868 nM.

`Nc1ccc(-c2cc(=O)oc3c(Cl)c(O)ccc23)cc1` [compound 17, 4-(4-aminophenyl)-8-chloro-7-hydroxy-2H-chromen-2-one] returned a melting point of 313 to 315 °C. Also, the Ki in data set [1] is over 10000 nM. Moreover, the inhibition constant Ki in data set [2] is over 10000 nM. Further, the inhibition constant (Ki) in data set [3] was found to be 180 nM. Further, the Ki in data set [4] was found to be 29.3 nM.

`Cc1c(O)ccc2c(-c3ccc(N)cc3)cc(=O)oc12` [compound 4, 4-(4-aminophenyl)-7-hydroxy-8-methyl-2H-chromen-2-one]: the inhibition constant (Ki) in data set [5] and in data set [6] was over 10000 nM in each case.

Consider `O=c1cc(-c2ccccc2)c2ccc(O)cc2o1` [compound 3, 7-hydroxy-4-phenyl-2H-chromen-2-one], for which the Ki in data set [5] and in data set [6] was over 10000 nM in each case.

For `CC(=O)c1c(O)ccc2c(-c3ccccc3)cc(=O)oc12` [compound 10, 8-Acetyl-7-hydroxy-4-phenyl-2H-chromen-2-one], the Ki in data set [1] is over 10000 nM; in data set [2], over 10000 nM; in data set [3], 177 nM; in data set [4], 24.9 nM.
